Measured values from PMC11672294, “The Antipsychotic Drug Aripiprazole Suppresses Colorectal Cancer by Targeting LAMP2a to Induce RNH1/miR‐99a/mTOR‐Mediated Autophagy and Apoptosis” (Advanced Science, 2024).
Counter-ions that a name gives are not always drawn.

The molecules below were run on HT29. Conditions: 72 h, relative to DMSO, 10 µM, Relative cell viability (%).
Outline: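 Cells were exposed to drug for 72 h, then to WST-1 for 2 h at 37 °C, and absorbance was read at 450 nm as viability against DMSO treatment. In the screen, each compound was applied at 10 µM.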

Row | SMILES | Relative cell viability (%) [%]
1 | O=C(O)Cc1ccccc1Nc1c(Cl)cccc1Cl [Diclofenac Diethylamine] | 60.68
2 | O=C(O)Cc1ccccc1Nc1c(Cl)cccc1Cl [Diclofenac Potassium] | 69.42
3 | O=C(O)Cc1ccccc1Nc1c(Cl)cccc1Cl [Diclofenac Sodium] | 111.9
4 | CN1CCN(c2ccc3nc(-c4c(N)c5c(F)cccc5[nH]c4=O)[nH]c3c2)CC1 [Dovitinib (TKI258) Lactate] | 3.419

Same assay, conditions: 72 h, relative to DMSO; 10 µM

Row | SMILES | Relative cell viability (%) [%]
5 | CC(=O)OCC(=O)[C@H]1CC[C@H]2[C@@H]3CCC4=CC(=O)CC[C@]4(C)[C@H]3CC[C@]12C [Deoxycorticosterone acetate] | 81.21
6 | Cc1cccc(Cc2c[nH]cn2)c1C [Detomidine HCl] | 118.5
7 | C[C@@H]1C[C@H]2[C@@H]3CCC4=CC(=O)C=C[C@]4(C)[C@@]3(F)[C@@H](O)C[C@]2(C)[C@@]1(O)C(=O)CO [Dexamethasone (DHAP)] | 75.86
8 | Cc1cccc([C@H](C)c2cnc[nH]2)c1C [Dexmedetomidine HCl (Precedex)] | 113.8
9 | C[C@@H](CN1CC(=O)NC(=O)C1)N1CC(=O)NC(=O)C1 [Dexrazoxane HCl (ICRF-187, ADR-529)] | 75.86
10 | OC[C@H]1OC(O)[C@H](O)[C@@H](O)[C@@H]1O (stereo partly drawn) [Dextrose] | 126.7
11 | CC(=O)Oc1cccc2c1C(=O)c1c(OC(C)=O)cc(C(=O)O)cc1C2=O [Diacerein] | 73.94
12 | N#CC(c1ccc(Cl)cc1)c1c(Cl)cc(-n2ncc(=O)[nH]c2=O)cc1Cl (stereo not drawn) [Diclazuril] | 219
13 | C[C@]12CCC3=C4CCC(=O)C=C4CC[C@H]3[C@@H]1CC[C@@]2(O)CC#N [Dienogest] | 96.11
14 | CC/C(=C(/CC)c1ccc(O)cc1)c1ccc(O)cc1 [Diethylstilbestrol] | 69.07
15 | C[C@H]1O[C@@H](O[C@H]2[C@@H](O)C[C@H](O[C@H]3[C@@H](O)C[C@H](O[C@H]4CC[C@@]5(C)[C@H](CC[C@@H]6[C@@H]5C[C@@H](O)[C@]5(C)[C@@H](C7=CC(=O)OC7)CC[C@]65O)C4)O[C@@H]3C)O[C@@H]2C)C[C@H](O)[C@@H]1O [Digoxin] | 5.758
16 | COc1ccc([C@@H]2Sc3ccccc3N(CCN(C)C)C(=O)[C@@H]2OC(C)=O)cc1 [Diltiazem HCl] | 67.8
17 | CCc1cnn2c(NCc3ccc[n+]([O-])c3)cc(N3CCCC[C@H]3CCO)nc12 [Dinaciclib (SCH727965)] | 33.01
18 | OC(CCCN1CCCCC1)(c1ccccc1)c1ccccc1 [Diphenidol HCl] | 59.39
19 | OCCN(CCO)c1nc(N2CCCCC2)c2nc(N(CCO)CCO)nc(N3CCCCC3)c2n1 [Dipyridamole] | 52.54
20 | CC(=O)O[C@@]12CO[C@@H]1C[C@H](O)[C@@]1(C)C(=O)[C@H](O)C3=C(C)[C@@H](OC(=O)[C@H](O)[C@@H](NC(=O)OC(C)(C)C)c4ccccc4)C[C@@](O)([C@@H](OC(=O)c4ccccc4)[C@H]21)C3(C)C [Docetaxel Trihydrate] | 23.93
21 | C[C@@H]1CCO[C@H]2Cn3cc(C(=O)NCc4ccc(F)cc4F)c(=O)c(O)c3C(=O)N12 [Dolutegravir (GSK1349572)] | 70.87
22 | CCCCCCCCCCCC[N+](C)(C)CCOc1ccccc1 [Domiphen Bromide] | 82.12
23 | C[C@@H](O)[C@H]1C(=O)N2C(C(=O)O)=C(S[C@@H]3CN[C@H](CNS(N)(=O)=O)C3)[C@H](C)[C@H]12 [Doripenem Hydrate] | 88.32

Same assay, conditions: ht29 cells, 72 h, 10 µM

Row | SMILES | Relative cell viability (%) [%]
24 | CC[C@H]1OC(=O)[C@H](C)[C@@H](O[C@H]2C[C@@](C)(OC)[C@@H](O)[C@H](C)O2)[C@H](C)[C@@H](O[C@@H]2O[C@H](C)C[C@H](N(C)C)[C@H]2O)[C@](C)(O)C[C@@H](C)[C@@H]2N[C@@H](COCCOC)O[C@H]([C@H]2C)[C@]1(C)O [Dirithromycin] | 84.85
